Experimental data: US8063108B2, “Method for modulating microbial quorum sensing” (priority 2004, dated 2011)

Assays:
[1] = biological target: T1, LasR transcriptional activator (Pseudomonas aeruginosa, UniProt P25084); assay: P. putida F117 pKRC12 lasB-GFP reporter assay (secondary screens); format: cell-based; details: compounds 10 μM, relative fluorescence (fluorescence divided by absorbance at 600 nm) as percent of AHL induced control; for % Activity of AHL Standard, 3 oxo C10HSL: 3oxoC10HSL 100 nM; for % Activity of AHL Standard, 3 oxo C12HSL: 3oxoC12HSL 50 nM
T1 construct: expressed in transfected cells; host or cells: Pseudomonas putida F117 carrying plasmid pKRC12 (lasR, PlasB-gfp)
Description: Additional screens were performed similar to screen described in the initial screen, except assays were performed in 96-well microtiter plates at a total volume of 100 μl. The reporter strain P. putida F117 pKRC12 was grown overnight at 28° C. in LB media, diluted with LB media to achieve an optical density of 0.05 at 600 nm (OD600), and 96 μl of cells were aliquoted to 96-well plates. Compounds were added at a final concentration of 100 nm or as otherwise indicated in each experiment and the bacterial cells were incubated with the compounds for approximately 30 minutes prior to the addition of 3oxoC10HSL or 3oxoC12HSL at a final concentration of 100 nM and 50 nM respectively or as indicated for each experiment. Fluorescence was measured at regular intervals after 3 hours using the Wallac Victor2 plate reader with an excitation wavelength of 485 nm and emission detection at 515 nm. Representative results are presented in FIGS. 6A and B and present the percentage of GFP expression activity as a function of expression of the AHL (3oxoC10 HSL) control. The numbers on the X axis refer to the Chembridge library reference number. Effects on growth of the antagonists were determined by measuring the optical density at 600 nm of growing bacterial cultures P. putida F 117 pKRC 12. […] (Reference for P. putida F117 pKRC12: Steidle, A., K. Sigl, R. Schuhegger, A. Ihring, M. Schmid, S. Gantner, M. Stoffels, K. Riedel, M. Givskov, A. Hartmann, C. Langebartels, and L. Eberl. 2001. Visualization of N-acylhomoserine lactone-mediated cell-cell communication between bacteria colonizing the tomato rhizosphere. Appl Environ Microbiol 67:5761-70). […]
This example presents representative results of experiments designed to test the activity of putative antagonists when challenged with different concentrations of synthetic AHLs, particularly 3oxoC12HSL. Assays were conducted with P. putida F117 pKRC12 reporter strain as described in the methods for secondary screens.
Following the initial screens to identify strong antagonists of the LasR transcriptional activator, further investigation of additional compounds in the Chembridge library was carried out. In particular, the experiments described in Example 1 identified three compounds that shared a thiocarbamate structure, as also shown in FIG. 16. To further investigate structure-activity relationships, the inventors examined the antagonist activity of 19 additional compounds with related thiocarbamate structures, using the procedures described in Example 1. The results are presented in Table 4, expressed as the percent activity of the AHL induced control. The % activity represents the relative fluorescence, which is the fluorescence observed in each assay divided by bacterial cell density as measured by absorbance at 600 nm. Compounds were assayed at a concentration of 10 μM. Assays were conducted with P. putida F117 pKRC12 reporter strain as described in the methods for secondary screens. The 3oxoC10HSL and 3oxoC12HSL were assayed at concentrations of 100 nM and 50 nM, respectively.

[2] = biological target: T1, LasR transcriptional activator; assay: Screen signal of thiocarbamate compounds (Table 1), GFP AHL sensor strain with LasR; format: cell-based
Source text: A screening system with green fluorescent protein as a reporter gene was adapted in a non-pathogenic species, Pseudomonas putida, closely related to Pseudomonas aeruginosa. A key element involved in the regulation of Pseudomonas aeruginosa, LasR, was engineered into the GFP construct (see FIG. 2), such that expression of GFP is linked to quorum sensing. Pseudomonas putida was then subjected to induction (e.g. by 3oxoC12HsL or 3oxoC10HsL) and/or inhibition by candidate chemical compounds from a commercially available combinatorial library. About 16,000 candidate compounds were individually screened.
Many Gram negative bacteria use quorum sensing, an intercellular signaling network that relies on N-acyl homoserine lactone signal molecules (AHL), to regulate and coordinate behaviors and interactions. Expression of quorum sensing-regulated genes is contingent on a LuxR-type transcriptional regulator and the accumulation of a threshold concentration of the cognate AHL. The experiments in this example relate to screening assays carried out to identify compounds that interfere with virulence gene expression under the control of the LasR transcriptional activator, a member of the LuxR family of transcriptional regulators. The inventors screened a library of approximately 16,000 synthetic compounds for induction and inhibition of quorum sensing in a Pseudomonas putida AHL sensor strain, engineered with the LasR transcriptional activator, which controls virulence gene expression in Pseudomonas aeruginosa. LasR mediated gene expression was monitored by measuring green fluorescent protein (GFP) expression from a transcriptional fusion between GFP and the promoter from lasB, which is under the control of LasR. lasB is a virulence gene that encodes an elastase involved in pathogenesis.
The initial screen utilized 3oxoC10HSL [N-(3-oxo-decanoyl)-L-homoserine lactone] as the inducer of LasR mediated signaling to identify compounds that compete with 3oxoC10HSL for half-maximal activation of GFP expression by the AHL reporter. This strategy enables identification of agonists and antagonists of LasR by pursuing compounds that either reduce or augment the activity of the AHL. The inventors further analyzed the antagonists in competition with 3oxoC12HSL [N-(3-oxo-dodecanoyl)-L-homoserine lactone]. The activities of the agonists were further characterized in the absence of AHL.
To determine the effects of compounds on AHL-mediated quorum sensing, the reporter strain P. putida F117 pKRC12 was grown overnight at 28° C. in LB media, diluted with LB media to achieve an optical density of 0.05 at 600 nm (OD600), and 28 μl aliquots of cells were added to 384-well plates. 16,000 compounds were screened from a subset of the Chembridge DIVERSet, each at a final concentration of 100 nM. Bacterial cells at a final volume of 30 μl were incubated with the compounds for approximately 30 minutes prior to the addition of 3oxoC10HSL, at a final concentration of 100 nM. All of the compounds were dissolved in DMSO. DMSO was included in all controls. A Biomek FX liquid handler was used to dispense the reagents and bacteria into the 384-well plates. The initial screen was performed at room temperature. Fluorescence was measured at regular intervals after 3 hours using the EnVision plate reader (Perkin Elmer, inc.) with an excitation wavelength of 485 nm and emission detection at 510 nm. Compounds that reduced or increased the expression of GFP by a factor of greater than or equal three standard deviations from the mean values for controls containing 3oxoC10HSL were chosen for further analysis. Compounds that increased the expression of GFP by three standard deviations were designated as putative agonists. Compounds that decreased the expression of GFP by three standard deviations were designated as putative antagonists.

T1 sequence (P25084 whole entry): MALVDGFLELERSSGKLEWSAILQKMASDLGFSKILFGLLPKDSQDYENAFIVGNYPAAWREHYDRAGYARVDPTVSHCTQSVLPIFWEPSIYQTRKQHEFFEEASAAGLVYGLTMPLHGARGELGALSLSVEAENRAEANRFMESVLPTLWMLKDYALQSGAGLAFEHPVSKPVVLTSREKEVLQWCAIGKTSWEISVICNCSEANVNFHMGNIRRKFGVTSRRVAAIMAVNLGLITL

| SMILES | % Activity of AHL Standard, 3 oxo C10HSL [1] [%] | % Activity of AHL Standard, 3 oxo C12HSL [1] [%] | Signal 671/672 [2] | Signal 673/674 [2] | Signal 674/875 [2] |
| --- | --- | --- | --- | --- | --- |
| COC(=O)c1ccccc1NC(=O)CSC(N)=O [Compound 1] | 35.86 | 33.64 |  |  |  |
| CCOC(=O)c1ccccc1NC(=O)CSC(N)=O [Compound 2] | 35.50 | 40.09 |  |  |  |
| Cc1ccc(NC(=O)CSC(N)=O)cc1Cl [Compound 3] | 32.27 | 41.63 |  |  |  |
| Cc1cccc(NC(=O)CSC(N)=O)c1C [Compound 4] | 37.50 | 43.00 |  |  |  |
| Cc1ccc(Cl)cc1NC(=O)CSC(N)=O [Compound 5] | 56.73 | 47.85 |  |  |  |
| NC(=O)SCC(=O)Nc1cccc(O)c1 [Compound 6] | 45.08 | 49.68 |  |  |  |
| COc1ccc(NC(=O)CSC(N)=O)cc1 [Compound 7] | 36.45 | 49.85 |  |  |  |
| NC(=O)SCC(=O)Nc1ccccc1Cl [Compound 8] | 32.72 | 51.98 |  |  |  |
| COc1cccc(NC(=O)CSC(N)=O)c1 [Compound 9] | 35.50 | 53.30 |  |  |  |
| Cc1cccc(NC(=O)CSC(N)=O)c1 [Compound 10] | 49.10 | 55.40 |  |  |  |
| NC(=O)SCC(=O)Nc1ccccc1Br [Compound 11] | 36.60 | 56.70 |  |  |  |
| CC(=O)c1ccc(NC(=O)CSC(N)=O)cc1 [Compound 12] | 59.20 | 64.90 |  |  |  |
| NC(=O)SCC(=O)Nc1cccc(F)c1 [Compound 13] | 33.60 | 67.60 |  |  |  |
| COc1ccccc1NC(=O)CSC(N)=O [Compound 14] | 46.80 | 68.60 |  |  |  |
| COc1ccccc1NC(=O)CSC(N)=O [Compound 5947535] |  |  | 99128 | 169923 | 572429 |
| NC(=O)SCC(=O)Nc1ccccc1O [Compound 5947920] |  |  | 31966 | 33599 | 35234 |
| NC(=O)SCC(=O)Nc1ccc(Br)cc1 [Compound 5948339] |  |  | 99889 | 122318 | 382242 |
| Cc1ccc(Cl)cc1NC(=O)CSC(N)=O [Compound 5948544] |  |  | 120140 | 98180 | 418594 |

| SMILES | % Activity of AHL Standard, 3 oxo C10HSL [1] [%] | % Activity of AHL Standard, 3 oxo C12HSL [1] [%] | Signal 671/672 [2] | Signal 673/674 [2] | Signal 674/875 [2] |
| --- | --- | --- | --- | --- | --- |
| COc1ccc(NC(=O)CSC(N)=O)cc1 [Compound 5948690] |  |  | 580722 | 341731 | 1742777 |
| NC(=O)SCC(=O)Nc1ccc(Cl)c(Cl)c1 [Compound 5949527] |  |  | 314238 | 171491 | 686157 |
| NC(=O)SCC(=O)Nc1ccccc1Br [Compound 5949674] |  |  | 184012 | 227644 | 1811011 |
| NC(=O)SCC(=O)Nc1cccc(F)c1 [Compound 5949713] |  |  | 100580 | 97648 | 265386 |
| COc1ccc(NC(=O)CSC(N)=O)c(OC)c1 [Compound 5950824] |  |  | 358647 | 332745 | 1769017 |
| COC(=O)c1ccccc1NC(=O)CSC(N)=O [Compound 5951673] |  |  | 135505 | 176618 | 1041625 |
| COC(=O)c1ccc(NC(=O)CSC(N)=O)cc1 [Compound 5952057] |  |  | 161090 | 186369 | 1124336 |
| CCOC(=O)c1ccccc1NC(=O)CSC(N)=O [Compound 5952120] |  |  | 29681 | 31840 | 32358 |
| CC(=O)c1ccc(NC(=O)CSC(N)=O)cc1 [Compound 5952389] |  |  | 464145 | 594209 | 1805803 |
| Cc1ccc(NC(=O)CSC(N)=O)cc1Cl [Compound 5952472] |  |  | 176752 | 223255 | 652341 |
| NC(=O)SCC(=O)Nc1cccc(Cl)c1 [Compound 5953997] |  |  | 71274 | 87420 | 218815 |
| NC(=O)SCC(=O)Nc1ccc(I)cc1 [Compound 5955203] |  |  | 375590 | 386242 | 1805793 |
| Cc1ccc(NC(=O)CSC(N)=O)c(C)c1 [Compound 5955325] |  |  | 120271 | 134098 | 694077 |
| Cc1cccc(NC(=O)CSC(N)=O)c1 [Compound 5955821] |  |  | 266776 | 285870 | 1575457 |
| NC(=O)SCC(=O)Nc1ccccc1Cl [Compound 5956488] |  |  | 120221 | 145117 | 867440 |
| Cc1cccc(NC(=O)CSC(N)=O)c1C [Compound 5956611] |  |  | 116987 | 131695 | 703195 |
| COc1cccc(NC(=O)CSC(N)=O)c1 [Compound 5956868] |  |  | 246680 | 243693 | 1277307 |
